{"source": "patent US20230219957A1", "about": "“SMALL MOLECULE CB002-ANALOGES RESTORE THE P53 PATHWAY AND TARGET S-PHASE CHECKPOINT” (Brown University, priority 2020, published 2023)", "key": {"SW480 colon cancer cells [1]": {"tested_on": "SW480 colon cancer cells", "test": "Immunoblot of cell cycle markers", "type": "cell-based, human", "details": "synchronized SW480", "experimental": "Immunoblotting (additional method). After treatment, floating cells were collected, and adherent cells were trypsinized, washed with phosphate-buffered saline, and lysed with RIPA buffer (Sigma-Aldrich, St. Louis, Mo., USA) for thirty minutes to one hour at 4° C. Protein lysates were pelleted. The supernatant was collected. Total protein per sample was determined using a Pierce™ BCA Protein Assay Kit (Thermo Fisher Scientific, Waltham, Mass., USA). Proteins were denatured using 1× NuPAGE® LDS sample buffer (Thermo Fisher Scientific, Waltham, Mass., USA) and reduced with 2-mercaptoethanol (Sigma-Aldrich, St. Louis, Mo., USA). Protein lysates were boiled for fifteen min at 95° C. After protein normalization, samples were loaded into NuPAGE™ Novex™ 4-12% Bis-Tris Protein Gels (Thermo Fisher Scientific, Waltham, Mass., USA). Gel electrophoresis was performed with NuPAGE™ MES SDS Running Buffer. Proteins were transferred onto an Immobilon-P membrane (PVDF, EMD Millipore, Taunton, Mass., USA) using a Bio-Rad system with a 10% Tris-Glycine and 10% methanol transfer buffer diluted in distilled and deionized water. Membranes were blocked with 10% milk in Tris-buffered saline with Tween 20 (TBST) solution. The membranes were incubated overnight with the primary antibody, washed with TBST, and incubated with secondary antibody for one hour. Primary antibody incubations were performed in 5% milk or 5% bovine serum albumin in TBST solution as per manufacturer instructions. Signal was detected using a chemiluminescent detection kit, followed by autoradiography. The following antibodies were used: p53 (1:1000, #sc-126, Santa Cruz Biotechnology, Santa Cruz, Calif., USA), p73 (1:1000, #A300-126A, Bethyl Laboratories), Noxa (1:250, #OP180, EMD Millipore, Taunton, Mass., USA), DR5 (#3696), cleaved PARP (#9546), phospho-RPA32/RPA2 (#54762), p-cdc2 (#9111), p-cdc25c, pH3 (#3377) (1:1,000; Cell Signaling Technology, Inc., Danvers, Mass. USA) and β-actin (1:10000, A5441, Sigma).\n(§1) Cell synchronization. Synchronized cells were synchronized by double thymidine block. Cells were treated with […] thymidine for sixteen hours. The drug was removed and replaced by complete growth media for eight hours. Cells were treated for the second time with […] thymidine for sixteen hours. At this point, cells were treated and harvested."}, "SW480 colon cancer cells [2]": {"tested_on": "SW480 colon cancer cells", "test": "Propidium iodide / BrdU cell cycle analysis of synchronized cells", "type": "cell-based, human", "details": "all time points, versus DMSO vehicle control", "experimental": "as §1\nPropidium iodide and BrdU flow cytometry assay. Cells were seeded at a density of 5×10^5 in a 6-well plate and treated for forty-eight to seventy-two hours. After treatment, floating cells were collected, and adherent cells were trypsinized, pelleted, washed with phosphate-buffered saline, and fixed in 70% ethanol overnight. For propidium iodide (PI) based Sub-G1 apoptosis analysis, cells were spun down after fixation and resuspended in phosphate-citric acid buffer (0.2M Na2HPO4+0.1M Citric Acid, pH 7.8) at room temperature for five minutes. The cell pellet was resuspended for staining with 50 μg/mL PI and 250 μg/mL ribonuclease (RNase A). For BrdU analysis, after cell fixation, cells were spun down and resuspended in one mL of 2N HCL with 0.5% Triton X-100 for thirty minutes at room temperature. Cells were pelleted, washed with phosphate-buffered saline, and resuspended in 20 μL BrdU antibody (BD Biosciences, cat no. 347580) diluted in 0.5% Tween 20/PBS/5% bovine serum albumin for thirty minutes at room temperature. Cells were then spun down and resuspended in 140 μg/mL goat-anti mouse Alexa Fluor 488 (#A-11008, Thermo Fisher Scientific, Waltham, Mass., USA) in 0.5% Tween 20 in phosphate-buffered saline/5% bovine serum albumin for thirty minutes at room temperature. Cells were then spun down and resuspended in 5 μg/mL PI: 250 μg/mL RNase A solution. Samples were analyzed on an Epics Elite Epics flow cytometer (Coulter-Beckman).\nBrdU analysis gating. Cell aggregates were gated out in the PI Peak vs DNA PI histogram. BrdU lower limit intensity was set on the upper limit of the negative control. The no BrdU antibody assays and no goat-anti mouse Alexa Fluor 488 antibody assays were the negative controls. […] Gating was held constant throughout the samples within a given assay."}}, "data": [{"smiles": "Cn1c(=O)c2c(ncn2C)n(C)c1=O", "note": "[caffeine, reference compound]", "values": [{"measurement": "pcdc2(Tyr15) and pcdc25c(Ser16) expression", "setting": "SW480 colon cancer cells [1]; combination with etoposide", "value": "decreased expression"}, {"measurement": "S-phase population", "setting": "SW480 colon cancer cells [2]", "value": "comparable to the dimethyl sulfoxide vehicle control"}]}, {"smiles": "COc1cc([C@@H]2c3cc4c(cc3[C@@H](O[C@@H]3O[C@@H]5CO[C@@H](C)O[C@H]5[C@H](O)[C@H]3O)[C@H]3COC(=O)[C@H]23)OCO4)cc(OC)c1O", "note": "[etoposide, reference compound]", "values": [{"measurement": "pcdc2(Tyr15) and pcdc25c(Ser16) protein expression", "setting": "SW480 colon cancer cells [1]; single agent", "value": "enhances protein expression"}]}]}
